# Measured values: patent US11472844B2, “Peptidomimetics, method of synthesis and uses thereof” (priority 2017, dated 2022)
# “Also recorded” adds a separate entry of the source. *: point of attachment. X1 = CC[N+]1=C(/C=C/C=C/C=C2N(CCCCCC(=O)NCCN3C(=O)CC(*)C3=O)c3ccc(S(=O)(=O)O)cc3C2(C)C)C(C)(C)c2cc(S(=O)(=O)[O-])ccc21
# How the values were obtained:
# [1] = tested on: Peripheral blood mononuclear cells (PBMC); experiment: Fluorescent labelling of PBMC; assay type: cell-based, human; settings: PBMC fixed in PFA 3%
# From the text: (§1) Antibodies, fluorescent markers. For immunofluorescence assay, lactoferrin was detected with a mouse anti-lactoferrin primary monoclonal antibody (Hycult biotech, clone 265-1K1, 1:50 dilution) and an anti-mouse-FITC conjugated secondary antibody (1:1000). Nuclei were detected with DAPI (Life Technologies), Lyophilized MUB40 peptides (MUB40#1 (SEQ ID NO: 3)-Cy5, MUB40#2 (SEQ ID NO: 4)-Cy5, MUB40#3 (SEQ ID NO: 5)-Cy5, MUB40#4 (SEQ ID NO: 6)-Cy5, MUB40#1 (SEQ ID NO: 3)-Dylight, RI-MUB40 (SEQ ID NO: 2)-Cy5, and RI-MUB40 (SEQ ID NO: 2)-Biotin) were solubilized in a phosphate buffer pH8 at a 1 mg/mL concentration and used at a 1:1000 dilution. For PBMC staining CD19-APC (B lymphocytes), CD3-APC (T lymphocytes), and CD14-PercP (monocytes, macrophages) (BD Bioscience) were used at a 1:1000 dilution together with Dapi (1:1000) and MUB40-Cy5 (1 mg/mL). Actin was stained with Phalloidin-Rhodamine red X (RRX) (Jackson Immunoresearch Antibodies) used at a 1:1000 final dilution.
# Polymorphonuclear neutrophils purification. Human polymorphonuclear neutrophils were purified as described previously (Monceaux et al. 2016). Briefly, plasma was removed by centrifugation (450×g, 15 min); blood cells were resuspended in 0.9% NaCl solution supplemented with 0.72% Dextran. […]
# [2] = molecular target: T1, human purified lactoferrin (Homo sapiens, UniProt P02788); experiment: Lactoferrin polymers immunofluorescence labelling; assay type: binding; settings: PNGase treatment; listed as MUB40-Cy5
# T1 construct: purchased Sigma-Aldrich L1294
# Experimental: Lactoferrin polymerization. Human purified lactoferrin (ref: L1294, Sigma-Aldrich) was resuspended in deionized H2O (35 μg/mL). Lactoferrin was incubated in RPMI+10 mM Hepes supplemented with 10 mM FeCl3, at indicated concentrations (0.35 or 3.5 μg/mL) onto 24-well plates containing 12 mm coverslips overnight at 37° C., adapted from similar lactoferrin polymerization experiments performed in iron saturated phosphate buffer (Mantel et al. 1994).
# Lactoferrin deglycolysation. About 10 μg of human purified lactoferrin (ref: L1294, Sigma-Aldrich) was treated by Peptide-N-Glycosidase F (PNGaseF, New England Biolabs, Ipswich Mass., USA) for N-deglycosylation. Protein was treated exactly as described in manufacturer protocol. Twelve unit of PNGase F were added for 4 h at 37° C. for the removal of N-glycosylation.
# Lactoferrin polymers interaction with MUB40-Cy5. Lactoferrin polymers were centrifuged at 2000 rpm for 10 min and fixed in Paraformaldehyde (PFA) 4% for one hour. Lactoferrin polymers were immunolabeled in PBS+0.1% saponin (Sigma-Aldrich) with a mouse anti-lactoferrin primary monoclonal antibody (Hycult biotech, clone 265-1K1, 1:50 dilution) and an anti-mouse-FITC conjugated secondary antibody (1:1000), together with MUB40-Cy5 (SEQ ID NO: 3) (1 μg/mL). Slides were washed three times in PBS and three times in deionized H2O and mounted with prolong gold^tm mounting media.
# [3] = tested on: Colonic goblet cell granules; experiment: Fluorescent labelling of colonic goblet cell granules on fixed slides; assay type: cell-based, human; settings: 1 μg/mL
# Experimental: (§2) Colon explant surgical collection. In summary, human colon segments (ascending, descending, and sigmoid colon) were obtained from fully informed patients undergoing surgery for colon carcinoma and were analyzed anonymously. Patient written consent was obtained, according to the French bioethics law. None of the patients had undergone radiotherapy or chemotherapy. According to the pathologist's examination rules for the longitudinally bisected colon, a healthy segment of tissue, which was distant from the tumor region and devoid of metastatic cells, was removed. Tissues were processed according to the French Government guidelines for research on human tissues and the French Bioethics Act with the authorization no RBM 2009-50.
# as §1, with “For PBMC staining CD19-APC (B lymphocytes), CD3-APC (T lymphocytes), and CD14-PercP (monocytes, macrophages) (BD Bioscience) were used at a 1:1000 dilution together with Dapi (1:1000) and MUB40-Cy5 (1 mg/mL). Actin was stained with Phalloidin-Rhodamine red X (RRX) (Jackson Immunoresearch Antibodies) used at a 1:1000 final dilution.” left out
# [4] = tested on: mouse circulating neutrophils; experiment: Labelling of fixed mouse neutrophils; assay type: cell-based
# Experimental: (§3) Polymorphonuclear neutrophils purification. Human polymorphonuclear neutrophils were purified as described previously (Monceaux et al. 2016). Briefly, plasma was removed by centrifugation (450×g, 15 min); blood cells were resuspended in 0.9% NaCl solution supplemented with 0.72% Dextran. After red blood cells sedimentation, white blood cells were pelleted and further separated on a two layer Percoll (GE Healthcare) (51%−42%) by centrifugation (at 240×g, 20 min). PBMC (top layer) were isolated from polymorphonuclear neutrophils (bottom layer). Red blood cells were removed from the latter fraction using CD235a (glycophorin) microbeads (negative selection) (Miltenyi Biotec). PBMCs and polymorphonuclear neutrophils were resuspended in the autologous plasma. Guinea pig and mouse polymorphonuclear neutrophils were purified with the same procedure.
# [5] = molecular target: trypsin (Sus scrofa, UniProt P00761); settings: trypsin digestion, 37°C, pH8, followed up to 24 h
# Experimental: Trypsin proteolysis. MUB40 (SEQ ID NO: 3)-Cy5 and RI-MUB40 (SEQ ID NO: 2)-Cy5 were dissolved in 50 mM ammonium bicarbonate, pH 8. Prior to digestion and owing to the propensity of maleimide derivatives to undergo ring-opening in a basic environment (Fontaine et al., 2015), we incubated both peptides at 37° C. overnight. Ring-opening completion was checked before trypsin addition. […] Lyophilized trypsin (Thermo scientific) was reconstituted using 50 mM acetic acid, diluted with 50 mM ammonium bicarbonate and added to the peptide solution so as to obtain a final peptide concentration of 0.25 mg/mL and a protease to protein ratio of 1:20 (w/w). Samples were directly incubated on the injection sampler thermostated at 37° c. HPLC and LC-MS analyses were performed as previously described above, applying a 15% to 40% linear gradient of acetonitrile in 10 mM ammonium acetate over 20 minutes.
# Hydrolysis experiments were done in solution at 37° c., pH8 and monitored by HPLC by measuring the peak area of the remaining intact peptides.
# [6] = tested on: guinea pig circulating neutrophils; experiment: Labelling of fixed guinea pig neutrophils; assay type: cell-based
# Experimental: as §3
# [7] = tested on: human colonic mucus; experiment: Fluorescent labelling of human colonic mucus layer; assay type: binding; settings: 1 μg/mL; listed as MUB40#1-Cy5
# Experimental: as §2
# Fixation and staining procedures. For microscopy studies, purified or cultured cells and polymerized lactoferrin were resuspended onto 24-well plates containing 12 mm coverslips in RMPI 1640+10 mM Hepes (when cultured in the autologous plasma) and centrifuged at 300×g for 10 min. Culture media were removed and cells were fixed in 4% Paraformaldehyde (PFA) for two hours. Fixed cells were washed three times in PBS+0.1% saponin (Sigma-Aldrich), prior immunolabeling with primary antibodies in the same buffer for 1 hour (Triton 0.1% can alternatively be used for cell permeabilization). After three additional washes in PBS+0.1% saponin, secondary antibodies and fluorescent markers were incubated for one hour. […]
# as §1, with “For PBMC staining CD19-APC (B lymphocytes), CD3-APC (T lymphocytes), and CD14-PercP (monocytes, macrophages) (BD Bioscience) were used at a 1:1000 dilution together with Dapi (1:1000) and MUB40-Cy5 (1 mg/mL). Actin was stained with Phalloidin-Rhodamine red X (RRX) (Jackson Immunoresearch Antibodies) used at a 1:1000 final dilution.” left out
# T1 sequence (P02788 20-710): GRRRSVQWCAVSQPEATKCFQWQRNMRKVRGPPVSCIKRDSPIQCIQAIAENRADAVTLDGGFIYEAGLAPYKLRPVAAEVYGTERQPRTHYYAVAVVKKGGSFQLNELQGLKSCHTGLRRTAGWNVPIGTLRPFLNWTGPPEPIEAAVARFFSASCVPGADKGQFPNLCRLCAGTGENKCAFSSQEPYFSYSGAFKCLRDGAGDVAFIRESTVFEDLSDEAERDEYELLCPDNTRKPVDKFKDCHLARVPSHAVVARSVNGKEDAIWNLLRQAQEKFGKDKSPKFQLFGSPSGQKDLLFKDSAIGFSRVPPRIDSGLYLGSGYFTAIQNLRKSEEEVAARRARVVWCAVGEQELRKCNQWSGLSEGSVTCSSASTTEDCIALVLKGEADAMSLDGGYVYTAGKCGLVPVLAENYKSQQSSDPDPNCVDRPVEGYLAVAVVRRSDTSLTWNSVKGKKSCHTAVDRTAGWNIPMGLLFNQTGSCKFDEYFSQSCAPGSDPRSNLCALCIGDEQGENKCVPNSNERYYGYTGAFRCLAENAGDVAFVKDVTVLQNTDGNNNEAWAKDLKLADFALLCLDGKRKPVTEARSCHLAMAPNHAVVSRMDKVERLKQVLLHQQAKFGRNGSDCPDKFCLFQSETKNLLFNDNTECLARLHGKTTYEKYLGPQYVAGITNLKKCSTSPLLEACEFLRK
# Chain of trypsin (P00761 9-231): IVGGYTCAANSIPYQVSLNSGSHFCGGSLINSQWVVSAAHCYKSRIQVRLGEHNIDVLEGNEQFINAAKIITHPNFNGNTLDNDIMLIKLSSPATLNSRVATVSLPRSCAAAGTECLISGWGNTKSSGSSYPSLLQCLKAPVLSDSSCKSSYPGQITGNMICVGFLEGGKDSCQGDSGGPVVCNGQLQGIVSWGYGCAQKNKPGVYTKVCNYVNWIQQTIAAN
substance,measurement,setting,value
Ac-C(X1)TAEGIKKFEGDGYELFKDNFPAGEKFDNDDTNDQFYTVIF-NH2 [Cy5-MUB40#1],"staining of CD3+, CD14+ and CD19+ cells",[1],not stained
same,labelling of deglycosylated lactoferrin,[2],no longer labelled; also recorded: abolished
same,labelling of colonic goblet cell granules,[3],labelled
same,labelling of neutrophils,[4],efficiently labeled
same,degradation by trypsin (in words),[5],almost completely degraded within 3 h
same,labelling of neutrophils,[6],efficiently labeled
same,labelling of / binding to human colonic mucus,[7],labelled; also recorded: conserved the ability to bind to and fluorescently label the human colonic mucus
